Assays:
[1] = tested on: primary human T-ALL samples; assay: Viability / apoptosis induction in primary human T-ALL samples; type: cell-based
Description: (§1) E) Simplified diagram of rapamycin and silvestrol mechanism of action.

[2] = tested on: cap-dependent translation; assay: Dual-luciferase reporter assay (capped vs IRES-driven luciferase); type: cell-based; conditions: renilla and firefly luciferase either capped or under control of an IRES element
Method: Luciferase assays. Four tandem repeats of the (CGG)4 12-mer motif (GQs) or random sequence matched for length and GC content (random) were cloned into the 5′UTR of Renilla luciferase plasmid pGL4.73. Empty firefly luciferase plasmid pGL4.13 or HCV-IRES firefly were used as internal controls. Luciferase assays were performed using Dual-Luciferase Reporter Assay System (Promega E1960) following the manufacturer's instructions. GQs sequence: […]

[3] = tested on: KOPT-K1 xenografts; assay: KOPT-K1 xenograft study; conditions: for tumor growth: d 0-6, systemic; for toxicity, death, weight loss: treated mice, therapeutic doses
Method: Statistical analysis. All Kaplan-Meier curves were analyzed using the Mantel-Cox test. The significance of xenografted tumor size differences was determined using two-way repeated measures ANOVA tests. RT-PCRs were analyzed with two tailed t-tests.
Xenografts. 5,000,000 KOPT-K1 cells in 30% matrigel (BD 354234) were injected subcutaneously into C.B-17 scid mice. […] Tumor size was measured daily by caliper. P-values were calculated using 2-way repeated measures ANOVA.
Cycloheximide (C7698) and Rapamycin (R8781) were purchased from Sigma.
D) KOPT-K1 xenograft studies.

[4] = tested on: JURKAT and KOPT-K1 cells; assay: Immunoblots of target proteins in human T-ALL lines; type: cell-based; conditions: 25 nM, immunoblot
Method: (§2) Immunoblots. Lysates were made using Laemli lysis buffer. 30 ug of protein was loaded onto SDS-PAGE gels then transferred onto Immobilon-FL Transfer Membranes (Millipore IPFL00010). The antibodies used were α-Tubulin (Sigma T5168), β-actin (Sigma A5316), Myc (Santa Cruz Biotechnology sc-40), p-Akt 308 (Cell Signaling 9275), Akt (Cell Signaling 9272), S6 (Cell Signaling 2317), and p-S6 (Cell Signaling 2215), Notch1 (Cell signaling 3608), Myb (Santa Cruz Biotechnology, sc-517), CDK6 (Cell Signaling 3136), EZH2 (Cell Signaling 5246), Mdm2 (Santa Cruz Biotechnology, sc-965), Bcl2 (Santa Cruz Biotechnology, sc-509), Run×1 (Cell Signaling 4336), and GAPDH (Cell Signaling 5174).
Given the complexity of the RF data analysis, it was important to directly confirm loss of expression for at least some of these proteins. Briefly, immunoblots on JURKAT and KOPT-K1 cells treated with silvestrol (25 nM) and loaded with equal amounts of total protein confirmed dramatic loss of MYC, NOTCH1, BCL2, and CCND3 proteins (FIG. 6A). The effect on MYC was especially striking, it was dose dependent (FIG. 6B), lasted for 48 h, and was also achieved in xenografts in vivo (Figure S6A-B). […] As expected, ACTIN, TUBULIN, and GAPDH were not affected (FIG. 6A). […] The small and significant increase in MYC mRNA levels might be consistent with prior reports of a MYC auto-regulatory mechanism (Penn et al., 1990a; Penn et al., 1990b) (FIG. 6C).
FIG. 6 depicts validation of selected silvestrol targets. A) Immunoblots of lysates from human T-ALL lines treated with silvestrol (25 nM) and probed as indicated. B) Immunoblots of lysates from JURKAT cells treated with escalating doses of silvestrol and probed as indicated. C) mRNA levels for the corresponding genes treated with vehicle (DMSO, black) or silvestrol (red, 25 nM); D) Volcano plot of mRNA expression changes of all TE Down and rDiff genes in T-ALL samples (n=9) compared to normal thymocytes (n=4). E) Kaplan-Meier analysis showing time to leukemia development (as in FIG. 1B). Wild-type HPCs transduced with NOTCH1-ICN and empty vector (black, n=14), Myb (red, n=4), Ccnd3 T283A (orange, n=5), or shEzh2 (orange, n=10), vavP-Bcl2 (brown, n=4), p53−/− (green, n=3). F) Effect of OmoMYCER activation on survival of leukemic animals; (d=0 represents start of therapy/tamoxifen (TAM) administration). Inset: clearance of GFP expressing murine T-ALL cells from the marrow upon OmomycER activation (Untr: untreated, TAM: tamoxifen). G) Competition experiment (as in FIG. 1C/D) showing the percentage of each starting GFP positive population of murine T-ALL cells partially transduced with the indicated constructs and treated with silvestrol (* indicates p<0.05).
FIG. 13 depicts the relative contribution of MYC and other silvestrol targets in T-ALL. […]

[5] = tested on: S6 phosphorylation and AKT (T308) phosphorylation; assay: Immunoblots of S6 and AKT phosphorylation in KOPT-K1 cells; type: cell-based, human; conditions: 25 nM, 48 hours
Method: as §2, §1

(±)-CR-31-B
in vitro activity against T-ALL compared with silvestrol ([1]; not shown): similar | block of cap-dependent versus IRES-dependent translation [2]: preferentially block cap-dependent over IRES-dependent translation | tumor growth ([3]; 0.2 mg/kg, n=8, p<0.001): significant delay in tumor growth | pathologic analysis of treated tumors (TUNEL, Ki-67) ([3]; treated KOPT-K1 tumors): diffuse apoptosis by TUNEL and loss of proliferation by Ki-67 | toxicity, death, weight loss [3]: no severe toxicity, death, or weight loss | target protein levels compared with silvestrol result ([4]; 24H): same result was confirmed | phosphorylation of AKT (T308) [5]: did not lead to phosphorylation of AKT (T308) | ribosomal S6 phosphorylation / S6 kinase activity [5]: does not affect S6 kinase activity

COC(=O)[C@H]1[C@@H](O)[C@@]2(O)c3c(OC)cc(O[C@@H]4O[C@@H]([C@H](O)CO)CO[C@H]4OC)cc3O[C@@]2(c2ccc(OC)cc2)[C@@H]1c1ccccc1 [silvestrol]
IC50 ([1]; primary human T-ALL samples in vitro, 48 hours): 3 to 13 nM | block of cap-dependent versus IRES-dependent translation [2]: preferentially block cap-dependent over IRES-dependent translation | tumor growth ([3]; 0.5 mg/kg, n=7, p<0.001): significant delay in tumor growth | toxicity, death, weight loss [3]: no severe toxicity, death, or weight loss | ACTIN, TUBULIN and GAPDH protein levels [4]: not affected | MYB, CDK6, EZH2 and RUNX1/AML1 protein expression [4]: somewhat less decreased | MYC, NOTCH1, BCL2 and CCND3 protein levels [4]: dramatic loss | phosphorylation of AKT (T308) [5]: did not lead to phosphorylation of AKT (T308) | ribosomal S6 phosphorylation / S6 kinase activity [5]: does not affect S6 kinase activity

From patent US20150219624A1, “METHODS FOR IDENTIFYING ANTI-CANCER COMPOUNDS” (MEMORIAL SLOAN KETTERING CANCER CENTER, priority 2013, published 2015)
